Key:
Assay type in all cases: in vivo
Sclerotinia homoeocarpa [1] = experiment: Control of Sclerotinia homoeocarpa on Creeping Bentgrass (Example B-1, plot spray treatment); settings: 500 g ai/ha, sprayed three times every 14 days, assessed 19 days after last treatment, vs untreated (60% diseased)
Protocol: The following EC formulations were prepared: […]
(§1) Plots were inoculated with Creeping Bentgrass (Agrostis palustris Huds.) seeds infested with Sclerotinia homoeocarpa, and a quantity of formulations A and B which corresponds to a dose shown in the table below and expressed in g/ha was sprayed on the plots. This treatment was repeated three times at an interval of 1 treatment every 14 days. 19 days after the last treatment, the disease incidence and severity was assessed visually. […] Disease control is shown as % disease control compared to untreated Creeping Bentgrass.

Sclerotinia homoeocarpa [2] = experiment: Control of Sclerotinia homoeocarpa on Kentucky Bluegrass (Example B-2, plot spray treatment); settings: 500 g ai/ha, sprayed three times every 14 days, assessed 19 days after last treatment, vs untreated (58% diseased)
Protocol: as §1, with “Kentucky Bluegrass (Poa pratensis L.)” for “Creeping Bentgrass (Agrostis palustris Huds.)”, “Kentucky Bluegrass.” for “Creeping Bentgrass.”

[3] = system: Colletotrichum graminicola; experiment: Control of Colletotrichum graminicola on Annual Bluegrass/Creeping Bentgrass (Example B-3); settings: 500 g ai/ha; application interval 21 days, three sprays; assessed 10 days after final application; Poa/Bentgrass, natural infection; vs untreated (44% diseased)
Protocol: The following EC formulation was prepared: […]
Plots of a mixture of Annual Bluegrass (Poa annua) and Creeping Bentgrass (Agrostis stolifera) naturally infected with anthracnose (Colletotrichum graminicola) were treated with quantities of formulation C which correspond to a dose shown in the table below and expressed in g ai/ha. The dose corresponding to 250 g ai/ha was sprayed four times with an interval of 14 days. The dose corresponding to 500 g ai/ha was sprayed three times with an interval of 21 days. At 23 days after the final application with the 250 g ai/ha dose, and 10 days after the final application with the 500 g ai/ha dose, disease severity was assessed visually. […] Disease control is shown as % disease control compared to untreated plots.

Rhizoctonia solani = experiment: Control of Rhizoctonia solani on Colonial Bentgrass (Example B-4); settings: 302 g ai/ha, application interval 14 days, three sprays, assessed 21 days after final application, natural infection, vs untreated (80% diseased)
Protocol: Plots of Colonial Bentgrass (Agrostis tenius Sibth.) naturally infected with brown patch (Rhizoctonia solani) were treated with quantities of formulation C which correspond to a dose shown in the table below and expressed in g ai/ha. The dose corresponding to 302 g ai/ha was sprayed three times with an interval of 14 days. The dose corresponding to 604 g ai/ha was sprayed two times with an interval of 28 days. At 21 days after the final application of both dose rates, disease severity was assessed visually. […] Disease control is shown as % disease control compared to untreated plots.

SMILES | % Disease Control (Sclerotinia homoeocarpa [1]) [%] | % Disease Control (Sclerotinia homoeocarpa [2]) [%] | % Disease Control [3] [%] | % Disease Control (Rhizoctonia solani) [%]
CC(C)C1C2CCC1c1c(NC(=O)c3cn(C)nc3C(F)F)cccc12 (racemic) [Compound IAc] | 93 | 88 | 92 | 97
CC(C)CC(C)c1sccc1NC(=O)c1cn(C)nc1C(F)(F)F (stereo not drawn) [Penthiopyrad, N-[2-(1,3-dimethylbutyl)-3-thienyl]-1-methyl-3-(trifluoromethyl)-1H-pyrazole-4-carboxamide, reference compound] | 57 | 21 | – | –

— patent US20120225921A1, “METHOD OF CONTROLLING PHYTOPATHOGENIC DISEASES ON TURFGRASS” (SYNGENTA CROP PROTECTION, LLC, priority 2006, published 2012)
